Values of other authors as cited in patent publication US20260297035A1, “PROTEIN KINASE INHIBITORS AND USES THEREOF” (DELiver Therapeutics, Inc., priority 2023, published 2026).

Key:
RET-S891A = conditions: role: cofactor; peptide substrate Tyr 06; read-out: ATP Km app; cited from earlier work
RET-Y791F = conditions: role: cofactor; peptide substrate Tyr 02; read-out: ATP Km app; cited from earlier work
TNK1 = conditions: role: cofactor; peptide substrate Ser/Thr 13; read-out: ATP Km app; cited from earlier work
AURKC (Aurora C) = conditions: role: cofactor; peptide substrate Ser/Thr 19; read-out: ATP Km app; cited from earlier work
ABL1 F317I = conditions: role: cofactor; peptide substrate Tyr 02; read-out: ATP Km app; cited from earlier work
ITK = conditions: role: cofactor; peptide substrate Tyr 01; read-out: ATP Km app; cited from earlier work
EPHA1 = conditions: role: cofactor; peptide substrate Tyr 02; read-out: ATP Km app; cited from earlier work
SRC = conditions: role: cofactor; peptide substrate Tyr 02; read-out: ATP Km app; cited from earlier work
RET-A883F = conditions: role: cofactor; peptide substrate Tyr 04; read-out: ATP Km app; cited from earlier work
NTRK2 (TRKB) = conditions: role: cofactor; peptide substrate Tyr 01; read-out: ATP Km app; cited from earlier work
ABL1 T315I = molecular target: T1, ABL1 T315I (Homo sapiens, UniProt P00519, T315I); conditions: role: cofactor; peptide substrate Tyr 02; read-out: ATP Km app; cited from earlier work
T1 construct: The ABL1 variant polypeptides utilized contained the same polypeptide as the “isoahABL1(wt)” polypeptide except that each contained one corresponding amino acid substitution

SRC-N1 = conditions: role: cofactor; peptide substrate Tyr 02; read-out: ATP Km app; cited from earlier work
EPHB1 = conditions: role: cofactor; peptide substrate Tyr 02; read-out: ATP Km app; cited from earlier work
BTK = conditions: role: cofactor; peptide substrate Tyr 01; read-out: ATP Km app; cited from earlier work
RET = conditions: role: cofactor; peptide substrate Tyr 02; read-out: ATP Km app; cited from earlier work
EPHA8 = conditions: role: cofactor; peptide substrate Tyr 02; read-out: ATP Km app; cited from earlier work
ABL1 F317L = conditions: role: cofactor; peptide substrate Tyr 02; read-out: ATP Km app; cited from earlier work
TXK = conditions: role: cofactor; peptide substrate Tyr 06; read-out: ATP Km app; cited from earlier work
ROS1 = conditions: role: cofactor; peptide substrate Tyr 01; read-out: ATP Km app; cited from earlier work
AURKB (Aurora B) = conditions: role: cofactor; peptide substrate Ser/Thr 01; read-out: ATP Km app; cited from earlier work
JAK1 = conditions: role: cofactor; peptide substrate Tyr 06; read-out: ATP Km app; cited from earlier work
ABL1 G250E = conditions: role: cofactor; peptide substrate Tyr 02; read-out: ATP Km app; cited from earlier work
JAK2 = conditions: role: cofactor; peptide substrate Tyr 06; read-out: ATP Km app; cited from earlier work
NTRK1 (TRKA) = conditions: role: cofactor; peptide substrate Tyr 01; read-out: ATP Km app; cited from earlier work
ABL2 (Arg) = conditions: role: cofactor; peptide substrate Tyr 02; read-out: ATP Km app; cited from earlier work
ABL1(wt) = ABL1(wt) (Homo sapiens, UniProt P00519); conditions: role: cofactor; peptide substrate Tyr 02; read-out: ATP Km app; cited from earlier work
EPHA2 = conditions: role: cofactor; peptide substrate Tyr 01; read-out: ATP Km app; cited from earlier work
NTRK3 (TRKC) = conditions: role: cofactor; peptide substrate Tyr 01; read-out: ATP Km app; cited from earlier work
RET-V804L = conditions: role: cofactor; peptide substrate Tyr 02; read-out: ATP Km app; cited from earlier work
JAK3 = conditions: role: cofactor; peptide substrate Tyr 06; read-out: ATP Km app; cited from earlier work
AURKA (Aurora A) = conditions: role: cofactor; peptide substrate Ser/Thr 01; read-out: ATP Km app; cited from earlier work
ABL1 Y253F = conditions: role: cofactor; peptide substrate Tyr 02; read-out: ATP Km app; cited from earlier work
RET-V804E = conditions: role: cofactor; peptide substrate Tyr 04; read-out: ATP Km app; cited from earlier work
EPHA5 = conditions: role: cofactor; peptide substrate Tyr 01; read-out: ATP Km app; cited from earlier work
TYK2 = conditions: role: cofactor; peptide substrate Tyr 03; read-out: ATP Km app; cited from earlier work
LCK = conditions: role: cofactor; peptide substrate Tyr 02; read-out: ATP Km app; cited from earlier work
BMX = conditions: role: cofactor; peptide substrate Tyr 01; read-out: ATP Km app; cited from earlier work
ABL1 E255K = conditions: role: cofactor; peptide substrate Tyr 02; read-out: ATP Km app; cited from earlier work
PTK2B (FAK2) = conditions: role: cofactor; peptide substrate Tyr 01; read-out: ATP Km app; cited from earlier work
EPHB2 = conditions: role: cofactor; peptide substrate Tyr 02; read-out: ATP Km app; cited from earlier work

For `Nc1ncnc2c1ncn2[C@@H]1O[C@H](COP(=O)(O)OP(=O)(O)OP(=O)(O)O)[C@@H](O)[C@H]1O` [ATP], the Km (RET-S891A) is listed as 8 µM, the Km (RET-Y791F) is listed as 12 µM and the Km (TNK1) is listed as 237 µM. For the same compound, the Km (AURKC (Aurora C)) was 26 µM, the Km (ABL1 F317I) was 15 µM and the Km (ITK) was 5.6 µM. The Km (EPHA1) was 18.5 µM, the Km (SRC) was 50 µM and the Km (RET-A883F) was 10 µM. For the same compound, the Km (NTRK2 (TRKB)) was 22 µM, the Km (ABL1 T315I) was 2800 nM and the Km (SRC-N1) was 50 µM. For the same compound, the Km (EPHB1) was 61.4 µM, the Km (BTK) was 36 µM and the Km (RET) was 11 µM. The Km (EPHA8) was 123 µM, the Km (ABL1 F317L) was 14 µM and the Km (TXK) was 96 µM. The Km (ROS1) was 61.4 µM, the Km (AURKB (Aurora B)) was 81 µM and the Km (JAK1) was 87 µM. The Km (ABL1 G250E) was 5.4 µM, the Km (JAK2) was 31 µM and the Km (NTRK1 (TRKA)) was 425 µM. The Km (ABL2 (Arg)) was 30 µM, the Km (ABL1(wt)) was 12 µM and the Km (EPHA2) was 65.4 µM. For the same compound, the Km (NTRK3 (TRKC)) was 54 µM, the Km (RET-V804L) was 5 µM and the Km (JAK3) was 14 µM. The Km (AURKA (Aurora A)) was 10 µM, the Km (ABL1 Y253F) was 11.8 µM and the Km (RET-V804E) was 50 µM. The Km (EPHA5) was 129 µM, the Km (TYK2) was 23 µM and the Km (LCK) was 45 µM. The Km (BMX) was 107 µM, the Km (ABL1 E255K) was 4.2 µM and the Km (PTK2B (FAK2)) was 5 µM. For the same compound, the Km (EPHB2) was 66 µM.
